{"source": "patent US8246944B2", "about": "“Immunotherapeutic agent for the combined treatment of tuberculosis in association with other drugs” (Archivel Farma, S.L., priority 2003, dated 2012)", "key": {"[1]": {"tested_on": "virulent strain of Mycobacterium tuberculosis", "experiment": "[…]; bacillary concentration in left lung and spleen", "format": "in vivo, BALB/c mice", "conditions": "Control: isoniazid only 25 mg/kg per day, 5 days per week, 6 weeks (weeks 9-15); killed week 15"}, "[2]": {"tested_on": "virulent strain of Mycobacterium tuberculosis", "experiment": "[…]; bacillary concentration in left lung and spleen", "format": "in vivo, C57BL/6 mice", "conditions": "Control: isoniazid alone 25 mg/kg per day, 5 days per week, weeks 9-17"}}}
{"smiles": "NNC(=O)c1ccncc1", "note": "[isoniazid]", "values": [{"measurement": "Bacillary concentration, Lung", "setting": "[1]", "value": "7.5 ± 2.89", "unit": "UFC/mL"}, {"measurement": "Bacillary concentration, Spleen", "setting": "[1]", "value": "0.75 ± 0.33", "unit": "UFC/mL"}, {"measurement": "Bacillary concentration, lungs, Week 15", "setting": "[2]; sacrificed week 15", "value": "2.34 ± 0.24", "unit": "log10 UFC/mL"}, {"measurement": "Bacillary concentration, spleen, Week 15", "setting": "[2]; sacrificed week 15", "value": "1.47 ± 0.44", "unit": "log10 UFC/mL"}, {"measurement": "Bacillary concentration, lungs, Week 28", "setting": "[2]; sacrificed week 28", "value": "3.86 ± 0.41", "unit": "log10 UFC/mL"}, {"measurement": "Bacillary concentration, spleen, Week 28", "setting": "[2]; sacrificed week 28", "value": "3.84 ± 0.48", "unit": "log10 UFC/mL"}]}
